Laboratory results taken from PubChem BioAssay (NCI).
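Grown in 96-well plates, cells were treated for 48 hours with each compound at five concentrations. Insufficient inhibition: endpoint recorded as highest concentration tested. TGI marks complete inhibition of growth.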

Assays:
Assay in all cases: NCI anticancer screen, dose series, 48 h
[1] = system: IGROV1 ovarian
[2] = system: NCI-H460 lung
[3] = system: SF-539 CNS
[4] = system: SW-620 colon
[5] = system: HCT-15 colon
[6] = system: OVCAR-3 ovarian
[7] = system: M14 melanoma
[8] = system: NCI-H226 lung
[9] = system: KM12 colon
[10] = system: LOX IMVI melanoma
[11] = system: COLO 205 colon
[12] = system: SK-OV-3 ovarian
[13] = system: MCF7 breast
[14] = system: EKVX NSCLC
[15] = system: HCC-2998 colon
[16] = system: A549 NSCLC
[17] = system: TK-10 renal
[18] = system: UO-31 renal

| Compound | TGI [1] | TGI [2] | TGI [3] | TGI [4] | TGI [5] | TGI [6] | TGI [7] | TGI [8] | TGI [9] | TGI [10] | TGI [11] | TGI [12] | TGI [13] | TGI [14] | TGI [15] | TGI [16] | TGI [17] | TGI [18] |
| --- | --- | --- | --- | --- | --- | --- | --- | --- | --- | --- | --- | --- | --- | --- | --- | --- | --- | --- |
| COC(=O)[C@H](COC(C)(C)C)NC(=O)N[C@H](C)c1ccccc1 | > 100 µM | > 100 µM | > 100 µM | > 100 µM | > 100 µM | > 100 µM | > 100 µM | > 100 µM | > 100 µM | > 100 µM | > 100 µM | > 100 µM | > 100 µM | > 100 µM | > 100 µM | > 100 µM | > 100 µM | > 100 µM |
| CCN(CC)C(=S)N/N=C/c1cc(OC)ccc1O | > 100 µM | 14.3 µM | 36 µM | > 100 µM | > 100 µM | > 100 µM | 16.6 µM | 25.5 µM | > 100 µM | 12.5 µM | > 100 µM | > 100 µM | 9.84 µM | > 100 µM | 27.8 µM | > 100 µM | > 100 µM | 6.12 µM |
| O=C(NCCc1ccccc1)c1cc(/C=C/c2cc(O)ccc2O)ccc1O | 11.3 µM | 24.6 µM | 5.94 µM | > 45.5 µM | 7.42 µM | 8.11 µM | 15.9 µM | 27.8 µM | 24.6 µM | 17.5 µM | 17.6 µM | 26.4 µM | 9.42 µM | 8.24 µM | 21.7 µM | > 41.1 µM | 7.16 µM | 2.86 µM |
| CC1(C)SCc2nc3ccccc3n21 | > 100 µM | > 100 µM | > 100 µM | > 100 µM | > 100 µM | > 100 µM | > 100 µM | > 100 µM | > 100 µM | > 100 µM | > 100 µM | > 100 µM | > 100 µM | > 100 µM | > 100 µM | > 100 µM | > 100 µM | > 100 µM |
| CSC1=C(C#N)C(=O)N(c2ccc(C)cc2)C(=O)C1C#N (stereo unspecified) | > 100 µM | > 100 µM | > 100 µM | > 100 µM | > 100 µM | > 100 µM | > 100 µM | > 100 µM | > 100 µM | > 100 µM | > 100 µM | > 100 µM | > 100 µM | > 100 µM | > 100 µM | > 100 µM | > 100 µM | > 100 µM |
| CCCCCCCC(CC(=O)NC(CO)C(=O)NC(CO)CC(C)C)OC(=O)CC(CCCCCCC)OC(=O)CC(CCCCCCC)OC1OC(C)C(O)C(OC2OC(C)C(O)C(O)C2O)C1O (stereo unspecified) | 26.4 µM | 19.1 µM | 24.7 µM | 33.4 µM | 34.6 µM | 26.9 µM | 17.5 µM | 38.7 µM | 26.3 µM | 17.7 µM | 22.8 µM | 31.5 µM | > 52.3 µM | 41.8 µM | 43.1 µM | 31.7 µM | 30.8 µM | 30.5 µM |
| O=C(c1ccccc1)C(Nc1ccc2ccccc2c1)c1ccccc1 (stereo unspecified) | > 100 µM | > 100 µM | > 100 µM | > 100 µM | > 100 µM | 78.2 µM | > 100 µM | > 100 µM | > 81.5 µM | > 100 µM | 33.7 µM | > 100 µM | > 100 µM | > 100 µM | 56.6 µM | > 100 µM | > 100 µM | > 100 µM |
| CC(Cc1cccc2c1Nc1ccccc1S2)N(C)CCO (stereo unspecified) | > 100 µM | > 100 µM | > 100 µM | > 100 µM | > 100 µM | > 100 µM | > 100 µM | > 100 µM | > 100 µM | > 100 µM | > 100 µM | > 100 µM | > 100 µM | > 100 µM | > 100 µM | > 100 µM | > 100 µM | > 100 µM |
| COc1ccc2c(c1)-c1nc(=O)n(CCCN(C)C)c3ccc([N+](=O)[O-])c(c13)N2 | 12.3 µM | 15.1 µM | 9.63 µM | > 44.3 µM | 8.55 µM | 19.4 µM | 3.69 µM | 27.5 µM | 4.02 µM | 3.24 µM | 18.4 µM | 17.3 µM | 18.2 µM | 6.45 µM | 17.7 µM | 17 µM | 7.17 µM | 4.73 µM |
| COC(=O)c1ccc(C)cc1C1CN=NC12Cc1cc(C)ccc1C2=O (stereo unspecified) | > 100 µM | > 65.4 µM | 36.2 µM | > 100 µM | > 100 µM | > 80.1 µM | 36.9 µM | 88 µM | 44.1 µM | 42.9 µM | 19.1 µM | > 100 µM | 24 µM | > 95.5 µM | > 71.4 µM | > 100 µM | 71.7 µM | > 85.1 µM |
| O=C(O)C1=CN(c2ccncc2)C(c2ccco2)=CC1c1ccccc1[N+](=O)[O-] (stereo unspecified) | 5.98 µM | 36.3 µM | 10.3 µM | > 31.7 µM | 4.75 µM | 21.2 µM | 23.4 µM | 38.3 µM | 3.4 µM | 3.85 µM | 32.9 µM | 33.6 µM | 10.7 µM | 23.8 µM | 3.62 µM | 34.2 µM | 15.9 µM | 23.3 µM |
| CC[C@@H]1CC[C@@H]2[C@H](CC[C@]3(C)[C@@H](OC(C)=O)CC[C@@H]23)[C@H]1C(=O)OC | 89.8 µM | 51.6 µM | 38.3 µM | 48.8 µM | 49.5 µM | 34.4 µM | 42.3 µM | 38 µM | 52.1 µM | 35.6 µM | 29.5 µM | > 100 µM | 60.3 µM | 58.6 µM | > 100 µM | 70.8 µM | > 100 µM | > 100 µM |
